# In paper PMC9421653 (Journal of Medicinal Chemistry, 2022):
# “Also recorded” adds a separate entry of the source.
# What was measured:
# [1] = Mouse hepatocyte stability; type: in vitro ADME; settings: hepatocytes, read-out: mouse heps t1/2
# in vitro = settings: human, microsomes
# human FFAR3 = molecular target: T1, human FFAR3 (Homo sapiens, UniProt O14843); assay: [35S]GTPγS binding, block of C3 (propionate) at FFAR3; type: biochemical; settings: tested at 10 μM
# T1 construct: expressed in transfected cells; host or cells: Flp-In T-REx 293 cells, induced; membrane preparations
# T1 sequence (O14843 1-346): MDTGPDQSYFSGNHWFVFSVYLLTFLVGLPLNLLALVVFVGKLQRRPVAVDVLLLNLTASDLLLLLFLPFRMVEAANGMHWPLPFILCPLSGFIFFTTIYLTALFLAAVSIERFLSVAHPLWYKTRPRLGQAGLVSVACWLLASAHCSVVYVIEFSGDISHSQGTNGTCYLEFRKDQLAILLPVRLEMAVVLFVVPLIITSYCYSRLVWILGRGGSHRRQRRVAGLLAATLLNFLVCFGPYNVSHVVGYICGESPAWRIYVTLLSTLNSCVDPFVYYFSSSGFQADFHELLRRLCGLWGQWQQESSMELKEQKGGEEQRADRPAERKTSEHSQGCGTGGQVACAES
# physchem = assay: physchem
# Text: DPI = 4,5-Diphenylimidazole
# (2 pictures or pasted objects on this page, not shown here)
# mouse plasma protein = assay: Mouse plasma protein binding; type: in vitro ADME
# [2] = Log D7.4 (distribution coefficient); type: physicochemical; settings: pH 7.4
# human FFAR2 = molecular target: T2, human FFAR2 (Homo sapiens, UniProt O15552); assay: [35S]GTPγS binding, block of C3 (propionate) at FFAR2; type: biochemical; settings: tested at 10 μM
# T2 construct: expressed in transfected cells; host or cells: Flp-In T-REx 293 cells, induced; membrane preparations
# T2 sequence (O15552 1-330): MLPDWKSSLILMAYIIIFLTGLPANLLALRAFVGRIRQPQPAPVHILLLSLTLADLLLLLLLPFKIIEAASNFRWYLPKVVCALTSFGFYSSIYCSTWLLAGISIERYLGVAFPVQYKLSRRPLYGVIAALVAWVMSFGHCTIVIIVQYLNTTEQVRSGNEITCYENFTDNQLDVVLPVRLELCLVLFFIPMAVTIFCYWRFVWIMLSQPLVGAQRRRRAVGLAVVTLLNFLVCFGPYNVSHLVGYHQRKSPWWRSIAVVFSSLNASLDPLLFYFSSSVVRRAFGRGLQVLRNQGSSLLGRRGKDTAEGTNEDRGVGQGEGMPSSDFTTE
# [3] = Mouse plasma protein binding; type: in vitro ADME; settings: read-out: mouse PPB
# human GPR84 = molecular target: T3, human GPR84 (Homo sapiens, UniProt P04899+Q9NQS5); assay: biochemical; type: biochemical; settings: [35S]GTPγS assay; negative log of the IC50 in molar; mean ± SEM
# T3 construct: expressed in transfected cells; host or cells: Flp-In T-REx 293 cells, doxycycline-induced; membrane preparations
# [4] = In vivo mouse PK, PO dosing; settings: for Tmax / AUCall / Cmax: PO (10 mg/kg); for AUCall / Cmax / bioavailability: CV % in parenthesis; for bioavailability: male, C57BL/6J, plasma, PO (10 mg/kg) vs IV (1 mg/kg)
# Procedure: (§1) Mouse pharmacokinetic studies were carried out by Xenogesis Ltd. (Nottingham, U.K.). All life phases were conducted in accordance with the local Ethics Review process.
# (§2) Male C57BL/6J mice (n = 3, Charles River, U.K.) were orally administered with a dose of 10 mg/kg of the appropriate compound (formulation 0.5% w/v methylcellulose in water). […] Plasma concentrations were determined by LC/MS/MS. LC/MS/MS analysis was performed using a Thermo TSQ Quantiva with Thermo Vanquish UPLC system on a Luna Omega C18 column. The plasma concentrations were simulated by nonparametric analysis from the plasma concentrations obtained in the PK study using Phoenix WinNonlin.
# [5] = In vivo mouse PK, IV dosing; settings: IV (1 mg/kg), CV % in parenthesis
# Procedure: as §1
# as §2, with “intravenously” for “orally”, “1” for “10”, “5% v/v DMSO in 20%” for “0.5%”, “HPCD” for “methylcellulose”
# mouse GPR84 = settings: cited from earlier work
# [6] = molecular target: GPR84-Gαi2 fusion protein, Phe101Ala (Homo sapiens, UniProt Q9NQS5, F101A); assay: [35S]GTPγS binding, GPR84-Gαi2 fusion protein, Phe101Ala; settings: Phe101 to Ala, versus wild type
# [7] = molecular target: GPR84-Gαi2 fusion protein, Phe335Ala (Homo sapiens, UniProt Q9NQS5, F335A); assay: [35S]GTPγS binding, GPR84-Gαi2 fusion protein, Phe335Ala; settings: Phe335 to Ala, versus wild type
# [8] = molecular target: GPR84-Gαi2 fusion protein, Trp360Ala (Homo sapiens, UniProt Q9NQS5, W360A); assay: [35S]GTPγS binding, GPR84-Gαi2 fusion protein, Trp360Ala; settings: Trp360 to Ala, versus wild type
# [9] = pH 7.4, kinetic solubility, PBS pH7.4 in 2% DMSO
# [10] = pH 7.4, Kinetic Solubility, R=1, PBS pH7.4 in 2% DMSO by plate reader, replicate 1
# [11] = pH 7.4, Kinetic Solubility, R=2, PBS pH7.4 in 2% DMSO by plate reader, replicate 2
# T3 sequence (Q9NQS5+P04899 fused): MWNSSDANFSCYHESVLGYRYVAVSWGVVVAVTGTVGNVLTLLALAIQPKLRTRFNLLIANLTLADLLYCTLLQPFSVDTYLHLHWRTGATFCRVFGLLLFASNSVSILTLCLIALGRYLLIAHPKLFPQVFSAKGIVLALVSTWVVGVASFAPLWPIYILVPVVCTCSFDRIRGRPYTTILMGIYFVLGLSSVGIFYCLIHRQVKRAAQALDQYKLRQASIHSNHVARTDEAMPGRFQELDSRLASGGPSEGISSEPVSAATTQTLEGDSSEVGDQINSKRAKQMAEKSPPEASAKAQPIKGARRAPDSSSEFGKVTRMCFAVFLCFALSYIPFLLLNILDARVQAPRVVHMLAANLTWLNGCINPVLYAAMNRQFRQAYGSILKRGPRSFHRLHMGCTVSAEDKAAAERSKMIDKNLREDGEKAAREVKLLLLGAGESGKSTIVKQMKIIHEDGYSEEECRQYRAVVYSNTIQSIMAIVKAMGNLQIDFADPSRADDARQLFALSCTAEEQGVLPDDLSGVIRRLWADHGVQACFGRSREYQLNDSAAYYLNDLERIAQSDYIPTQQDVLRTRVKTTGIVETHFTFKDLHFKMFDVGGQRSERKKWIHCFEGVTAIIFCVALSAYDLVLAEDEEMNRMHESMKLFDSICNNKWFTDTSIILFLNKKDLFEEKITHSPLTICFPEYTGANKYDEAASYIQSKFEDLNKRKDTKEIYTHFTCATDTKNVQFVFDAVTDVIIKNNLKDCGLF
# GPR84-Gαi2 fusion protein, Phe335Ala, sequence (Q9NQS5 whole entry F335A, the tested form may be a part): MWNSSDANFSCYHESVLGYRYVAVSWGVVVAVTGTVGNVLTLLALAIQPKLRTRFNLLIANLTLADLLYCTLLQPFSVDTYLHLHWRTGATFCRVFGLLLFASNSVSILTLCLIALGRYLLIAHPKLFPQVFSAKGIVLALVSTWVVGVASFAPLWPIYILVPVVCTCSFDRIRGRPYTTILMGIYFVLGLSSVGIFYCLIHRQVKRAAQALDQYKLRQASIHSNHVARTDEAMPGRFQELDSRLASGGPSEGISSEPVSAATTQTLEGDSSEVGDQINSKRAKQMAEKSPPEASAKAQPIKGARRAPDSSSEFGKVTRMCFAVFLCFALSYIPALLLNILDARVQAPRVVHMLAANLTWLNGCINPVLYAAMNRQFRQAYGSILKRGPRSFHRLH
# GPR84-Gαi2 fusion protein, Phe335Ala, sequence (P04899 2-355 partner): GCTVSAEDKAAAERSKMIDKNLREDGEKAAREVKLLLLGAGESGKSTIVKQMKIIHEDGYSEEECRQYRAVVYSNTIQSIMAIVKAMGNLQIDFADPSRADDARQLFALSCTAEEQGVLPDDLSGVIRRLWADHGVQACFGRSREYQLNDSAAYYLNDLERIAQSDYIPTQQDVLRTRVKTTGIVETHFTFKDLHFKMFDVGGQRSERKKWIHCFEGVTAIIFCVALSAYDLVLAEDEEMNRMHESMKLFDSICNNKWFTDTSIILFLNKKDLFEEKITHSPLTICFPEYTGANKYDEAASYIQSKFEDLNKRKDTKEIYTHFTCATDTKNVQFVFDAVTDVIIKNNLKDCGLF
# GPR84-Gαi2 fusion protein, Phe101Ala, sequence (Q9NQS5 whole entry F101A, the tested form may be a part): as the sequence (Q9NQS5 whole entry F335A, the tested form may be a part) above, with F101A, A335F counted along it
# GPR84-Gαi2 fusion protein, Phe101Ala, sequence (P04899 2-355 partner): as the sequence (P04899 2-355 partner) above
# GPR84-Gαi2 fusion protein, Trp360Ala, sequence (Q9NQS5 whole entry W360A, the tested form may be a part): as the sequence (Q9NQS5 whole entry F335A, the tested form may be a part) above, with A335F, W360A counted along it
# GPR84-Gαi2 fusion protein, Trp360Ala, sequence (P04899 2-355 partner): as the sequence (P04899 2-355 partner) above
smiles,measurement,setting,value
"c1ccc(-c2nnc(Cc3c[nH]c4ccccc34)nc2-c2ccccc2)cc1 [Compound 4, 3-((5,6-Diphenyl-1,2,4-triazin-3-yl)methyl)-1H-indole]",half-life,[1],4.4 min
same,half-life,in vitro,21.8 min
same,block of the actions of the C3 fatty acid propionate at FFAR3,human FFAR3,no ability to block; also recorded: did not block
same,solubility kinetic,"physchem; pH 7.4, Kinetic Solubility, R=1, PBS pH7.4 in 2% DMSO by LC-MS, replicate 1",1.5 µM
same,solubility kinetic,"physchem; pH 7.4, Kinetic Solubility, R=2, PBS pH7.4 in 2% DMSO by LC-MS, replicate 2",1.3 µM
same,solubility kinetic,physchem; [9],1.4 µM
same,mouse PPB,mouse plasma protein,<1 %free
same,logD,[2],4.24
same,block of the actions of the C3 fatty acid propionate at FFAR2,human FFAR2,no ability to block; also recorded: did not block
"CNC(=O)c1ccc(-c2nnc(Cc3c[nH]c4cnccc34)nc2-c2ccccc2)cc1 [Compound 68, 4-(3-((1H-Pyrrolo[2,3-c]pyridin-3-yl)methyl)-5-phenyl-1,2,4-triazin-6-yl)-N-methylbenzamide]",half-life,[1],12.5 min
same,half-life,in vitro,39.9 min
same,solubility kinetic,physchem; [10],149 µM
same,solubility kinetic,physchem; [11],143 µM
same,solubility kinetic,physchem; [9],146 µM
same,fraction unbound,[3],0.038
same,logD,[2],2.71
same,GTPγS (pIC50),human GPR84,7.29 ± 0.05
"c1ccc(-c2nc(Cc3c[nH]c4ccccc34)nnc2-c2ccc(CN3CCOCC3)cc2)cc1 [Compound 42, 4-(4-(3-((1H-Indol-3-yl)methyl)-5-phenyl-1,2,4-triazin-6-yl)benzyl)morpholine]",half-life,[1],16 min
same,half-life,in vitro,12.8 min
same,block of the actions of the C3 fatty acid propionate at FFAR3,human FFAR3,no ability to block; also recorded: did not block
same,solubility kinetic,physchem; [10],12 µM
same,solubility kinetic,physchem; [11],16 µM
same,solubility kinetic,physchem; [9],14 µM
same,mouse PPB,mouse plasma protein,<1 %free
same,logD,[2],3.84
same,Tmax,[4],60 min
same,AUCall,[4],1590 (18.7) ng/mL·h
same,Cmax,[4],402 (31.8) ng/mL
same,bioavailability,[4],36.8%
same,GTPγS (pIC50),human GPR84,8.28 ± 0.11
same,AUCall,[5],420 (12.5) ng/mL·h
same,C0,[5],394 (19.1) ng/mL
same,CL,[5],38.9 (13.9) mL/min/kg
same,Vss,[5],7.24 (9.2) L/kg
same,half-life,[5],2.51 (6.55) h
same,block of the actions of the C3 fatty acid propionate at FFAR2,human FFAR2,no ability to block; also recorded: did not block
"COc1ccc(-c2nnc(Cc3c[nH]c4ccccc34)nc2-c2ccc(OC)cc2)cc1 [Compound 1, 3-((5,6-Bis(4-methoxyphenyl)-1,2,4-triazin-3-yl)methyl)-1H-indole]",antagonism of mouse GPR84,mouse GPR84,unable to antagonize
same,affinity to block effects of the allosteric agonist PSB-16671,[6],substantial loss of affinity
same,block of the actions of the C3 fatty acid propionate at FFAR3,human FFAR3,no ability to block; also recorded: did not block
same,affinity to block effects of the allosteric agonist PSB-16671,[7],substantial loss of affinity
same,GTPγS (pIC50),human GPR84,7.93 ± 0.21
same,affinity to block effects of the allosteric agonist PSB-16671,[8],substantial loss of affinity
same,block of the actions of the C3 fatty acid propionate at FFAR2,human FFAR2,no ability to block; also recorded: did not block
"O=C(NCCO)c1ccc(-c2nnc(Cc3c[nH]c4ccccc34)nc2-c2ccccc2)cc1 [Compound 76, 4-(3-((1H-Indol-3-yl)methyl)-5-phenyl-1,2,4-triazin-6-yl)-N-(2-hydroxyethyl)benzamide]",half-life,[1],47.3 min
same,half-life,in vitro,57.2 min
same,block of the actions of the C3 fatty acid propionate at FFAR3,human FFAR3,no ability to block; also recorded: did not block
same,solubility kinetic,physchem; [10],59 µM
same,solubility kinetic,physchem; [11],62 µM
same,solubility kinetic,physchem; [9],61 µM
same,fraction unbound,[3],0.011
same,logD,[2],3.09
same,Tmax,[4],60 min
same,AUCall,[4],3160 (8.82) ng/mL·h
same,Cmax,[4],1080 (16.1) ng/mL
same,bioavailability,[4],41.5%
same,GTPγS (pIC50),human GPR84,7.46 ± 0.07
same,AUCall,[5],757 (10.8) ng/mL·h
same,C0,[5],1170 (29.6) ng/mL
same,CL,[5],22.0 (11.3) mL/min/kg
same,Vss,[5],1.81 (15.2) L/kg
same,half-life,[5],1.22 (13.5) h
same,block of the actions of the C3 fatty acid propionate at FFAR2,human FFAR2,no ability to block; also recorded: did not block
